Data taken from PubChem BioAssay AID1259407 (Chemical Carcinogenesis Research Information System (CCRIS), 2018).
Calls of active or inactive are those of the source. How the calls were made is not given here.

Tested on: CCRIS mutagenicity, Ames/micronucleus/aberration tests
Assay: CCRIS mutagenicity studies
[1] = Test System: AMES SALMONELLA TYPHIMURIUM, Strain/Indicator: TA98, Metabolic Activation: NONE, Method: PREINCUBATION
[2] = Test System: AMES SALMONELLA TYPHIMURIUM, Strain/Indicator: TA100, Metabolic Activation: NONE, Method: PREINCUBATION
[3] = Test System: AMES SALMONELLA TYPHIMURIUM, Strain/Indicator: TA98, Metabolic Activation: NONE, Method: STANDARD PLATE
[4] = Test System: AMES SALMONELLA TYPHIMURIUM, Strain/Indicator: TA100, Metabolic Activation: NONE, Method: STANDARD PLATE
[5] = Test System: AMES SALMONELLA TYPHIMURIUM, Strain/Indicator: TA98, Metabolic Activation: RAT, LIVER, S-9, AROCLOR 1254, Method: STANDARD PLATE
[6] = Test System: AMES SALMONELLA TYPHIMURIUM, Strain/Indicator: TA100, Metabolic Activation: RAT, LIVER, S-9, AROCLOR 1254, Method: STANDARD PLATE
[7] = Test System: AMES SALMONELLA TYPHIMURIUM, Strain/Indicator: TA1538, Metabolic Activation: NONE, Method: STANDARD PLATE
[8] = Test System: AMES SALMONELLA TYPHIMURIUM, Strain/Indicator: TA1538, Metabolic Activation: RAT, LIVER, S-9, AROCLOR 1254, Method: STANDARD PLATE

Measured: mutagenic call

CCC(=O)OCc1ccc([N+](=O)[O-])cc1
inactive: [1] inactive; negative | Test System: AMES SALMONELLA TYPHIMURIUM, Strain/Indicator: TA100(NR), Metabolic Activation: NONE, Method: PREINCUBATION inactive; negative
active: [2] active; positive | Test System: AMES SALMONELLA TYPHIMURIUM, Strain/Indicator: TA100, Metabolic Activation: RAT, LIVER, S-9, AROCLOR 1254, Method: PREINCUBATION active; positive

CC(=O)C1=CC[C@H]2C3=CCC4=C[C@@H](O)[C@H](O)C[C@]4(C)C3C[C@@H](O)[C@]12C (stereo partly specified)
inactive: Test System: AMES SALMONELLA TYPHIMURIUM, Strain/Indicator: TM677, Metabolic Activation: NONE, Method: STANDARD PLATE inactive; negative | Test System: AMES SALMONELLA TYPHIMURIUM, Strain/Indicator: TM677, Metabolic Activation: RAT, LIVER, S-9, AROCLOR 1254, Method: STANDARD PLATE inactive; negative | Test System: CHINESE HAMSTER OVARY, Strain/Indicator: CHO/6-THIOGUANINE, Metabolic Activation: NONE, Method: STANDARD PLATE inactive; negative

CC(C)COP(=S)(OCC(C)C)SCCl
inactive: Test System: AMES SALMONELLA TYPHIMURIUM, Strain/Indicator: TA98, Metabolic Activation: NONE inactive; negative | [3] inactive; negative | Test System: AMES SALMONELLA TYPHIMURIUM, Strain/Indicator: TA98, Metabolic Activation: RAT, LIVER, S-9, SODIUM PHENOBARBITAL, Method: STANDARD PLATE inactive; negative | Test System: AMES SALMONELLA TYPHIMURIUM, Strain/Indicator: TA98, Metabolic Activation: S-9 inactive; negative | Test System: AMES SALMONELLA TYPHIMURIUM, Strain/Indicator: TA100, Metabolic Activation: NONE inactive; negative | [4] inactive; negative | Test System: AMES SALMONELLA TYPHIMURIUM, Strain/Indicator: TA100, Metabolic Activation: RAT, LIVER, S-9, SODIUM PHENOBARBITAL, Method: STANDARD PLATE inactive; negative | Test System: AMES SALMONELLA TYPHIMURIUM, Strain/Indicator: TA100, Metabolic Activation: S-9 inactive; negative | Test System: E. COLI, Strain/Indicator: WP2, Metabolic Activation: NONE inactive; negative | Test System: E. COLI, Strain/Indicator: WP2, Metabolic Activation: RAT, LIVER, S-9, SODIUM PHENOBARBITAL, Method: STANDARD PLATE inactive; negative | Test System: E. COLI, Strain/Indicator: WP2, Metabolic Activation: S-9 inactive; negative | Test System: E. COLI, Strain/Indicator: WP2 UVRA, Metabolic Activation: NONE inactive; negative | Test System: E. COLI, Strain/Indicator: WP2 UVRA, Metabolic Activation: RAT, LIVER, S-9, SODIUM PHENOBARBITAL, Method: STANDARD PLATE inactive; negative | Test System: E. COLI, Strain/Indicator: WP2 UVRA, Metabolic Activation: S-9 inactive; negative

ClCC(Cl)(Cl)Cl
active: End Point: IN VITRO CHROMOSOMAL ABERRATIONS, Test System: CHINESE HAMSTER LUNG FIBROBLAST CELLS (CHL/IU), Metabolic Activation: RAT, LIVER, S-9, PHENOBARBITAL AND 5,6-BENZOFLAVONE active; positive (ploidy) | Test System: AMES SALMONELLA TYPHIMURIUM, Strain/Indicator: TA97, Metabolic Activation: RAT, LIVER, S-9, AROCLOR 1254, Method: STANDARD PLATE active; positive | [3] active; positive | [5] active; positive | [4] active; positive | [6] active; positive | Test System: AMES SALMONELLA TYPHIMURIUM, Strain/Indicator: TA104, Metabolic Activation: RAT, LIVER, S-9, AROCLOR 1254, Method: STANDARD PLATE active; positive
inactive: End Point: IN VITRO CHROMOSOMAL ABERRATIONS, Test System: CHINESE HAMSTER OVARY CELLS, Metabolic Activation: NONE inactive; negative; precipitation occurred at all doses | End Point: IN VITRO CHROMOSOMAL ABERRATIONS, Test System: CHINESE HAMSTER OVARY CELLS, Metabolic Activation: RAT, LIVER, S-9, AROCLOR 1254 inactive; negative; precipitation occurred at all doses | Test System: AMES SALMONELLA TYPHIMURIUM, Strain/Indicator: TA97, Metabolic Activation: NONE, Method: STANDARD PLATE inactive; negative | Test System: AMES SALMONELLA TYPHIMURIUM, Strain/Indicator: TA104, Metabolic Activation: NONE, Method: STANDARD PLATE inactive; negative

Cc1cc(O)c2c(c1O)C(=O)c1cccc(O)c1C2=O
inactive: Test System: UDS RODENT HEPATOCYTES, Strain/Indicator: THY INCORP, Metabolic Activation: NONE, Method: AUTORADIOGRAPHY inactive; negative

CCOC(=O)c1cc2cc3c4c(c2oc1=O)CCCN4CCC3
inactive: [7] inactive; negative | [8] inactive; negative

CCc1cccc(NC(=O)c2csc([N+](=O)[O-])c2)c1
active: [3] active; positive | [4] active; positive

CCOC(=O)C1OC1c1ccccc1 (stereo unspecified)
inactive: Test System: AMES SALMONELLA TYPHIMURIUM, Strain/Indicator: TA98, Metabolic Activation: HAMSTER, LIVER, S-9, AROCLOR 1254 (10%), Method: PREINCUBATION inactive; negative | [1] inactive; negative | [3] inactive; negative | Test System: AMES SALMONELLA TYPHIMURIUM, Strain/Indicator: TA98, Metabolic Activation: RAT, LIVER, S-9, AROCLOR 1254 (10%), Method: PREINCUBATION inactive; negative | [5] inactive; negative | Test System: AMES SALMONELLA TYPHIMURIUM, Strain/Indicator: TA100, Metabolic Activation: HAMSTER, LIVER, S-9, AROCLOR 1254 (10%), Method: PREINCUBATION inactive; negative | [2] inactive; negative | [4] inactive; negative | Test System: AMES SALMONELLA TYPHIMURIUM, Strain/Indicator: TA100, Metabolic Activation: RAT, LIVER, S-9, AROCLOR 1254 (10%), Method: PREINCUBATION inactive; negative | Test System: AMES SALMONELLA TYPHIMURIUM, Strain/Indicator: TA1535, Metabolic Activation: HAMSTER, LIVER, S-9, AROCLOR 1254 (10%), Method: PREINCUBATION inactive; negative | Test System: AMES SALMONELLA TYPHIMURIUM, Strain/Indicator: TA1535, Metabolic Activation: NONE, Method: PREINCUBATION inactive; negative | Test System: AMES SALMONELLA TYPHIMURIUM, Strain/Indicator: TA1535, Metabolic Activation: NONE, Method: STANDARD PLATE inactive; negative | Test System: AMES SALMONELLA TYPHIMURIUM, Strain/Indicator: TA1535, Metabolic Activation: RAT, LIVER, S-9, AROCLOR 1254 (10%), Method: PREINCUBATION inactive; negative | Test System: AMES SALMONELLA TYPHIMURIUM, Strain/Indicator: TA1535, Metabolic Activation: RAT, LIVER, S-9, AROCLOR 1254, Method: STANDARD PLATE inactive; negative | Test System: AMES SALMONELLA TYPHIMURIUM, Strain/Indicator: TA1537, Metabolic Activation: HAMSTER, LIVER, S-9, AROCLOR 1254 (10%), Method: PREINCUBATION inactive; negative | Test System: AMES SALMONELLA TYPHIMURIUM, Strain/Indicator: TA1537, Metabolic Activation: NONE, Method: PREINCUBATION inactive; negative | Test System: AMES SALMONELLA TYPHIMURIUM, Strain/Indicator: TA1537, Metabolic Activation: NONE, Method: STANDARD PLATE inactive; negative | Test System: AMES SALMONELLA TYPHIMURIUM, Strain/Indicator: TA1537, Metabolic Activation: RAT, LIVER, S-9, AROCLOR 1254 (10%), Method: PREINCUBATION inactive; negative | Test System: AMES SALMONELLA TYPHIMURIUM, Strain/Indicator: TA1537, Metabolic Activation: RAT, LIVER, S-9, AROCLOR 1254, Method: STANDARD PLATE inactive; negative | [7] inactive; negative | [8] inactive; negative
active: [6] active; positive | Test System: CHINESE HAMSTER OVARY, Strain/Indicator: CHO-K1-BH4/6-THIOGUANINE, Metabolic Activation: NONE active; positive | Test System: CHINESE HAMSTER OVARY, Strain/Indicator: CHO-K1-BH4/6-THIOGUANINE, Metabolic Activation: RAT, LIVER, S-9, AROCLOR 1254 active; positive
